US20070155827A1, “USE OF BENZO-FUSED HETEROCYCLE SULFAMIDE DERIVATIVES FOR THE TREATMENT OF DEPRESSION” (priority 2005, published 2007)

Columns and labels:
Male Sprague Dawley rats = assay: Forced Swim Test (Acute), FST; format: in vivo; conditions: p.o.
Experimental: The Forced Swim test (FST) is a commonly used procedure to screen compounds for possible antidepressant properties. This test is also known as the behavioral despair test. Rodents placed in […] tanks filled with water present a wide variety of escape or immobility behaviors. Antidepressant drugs from different classes markedly increase escape behaviors and/or decrease latency or duration of immobility.
Venlafaxine and desipramine were dissolved in water. All drugs and their vehicles were administered orally (p.o.) by gavage in a volume of 5 mL/kg.
Male Sprague Dawley rats (140 to 160 g) from Charles River Laboratories Wilmington, Mass. were used. The animals went through a five-day quarantine period before being subjected to the experimental procedure.
Animals were housed in groups of four in plastic cages at an ambient temperature of 21° C. to 23° C. with an automated 12 hour light/dark cycle and access to water and commercial rodent food ad libitum. Animals were not handled more than for the routine bedding change prior to pre-test swim session.
Each experiment consisted of seven treatment groups with n=4 animals per group. A total of 28 animals per experiment were used. Two consecutive experiments (1 and 2, 3 and 4, and 5 and 6) were exact replicas of each other. […] One treatment group of n=4 animals in each experiment was a vehicle treated group. […] In experiments 5 and 6 the effects of venlafaxine and maprotyline at 12 mg/kg, 30 mg/kg, and 60 mg/kg were tested.
The basic apparatus consisted of a cylinder (46 cm tall×˜20 cm diameter) filled with water to 30 cm deep, at a temperature of 25±1° C. The automated version of the FST was used to perform the experiments. Plumbing for automatic filling and emptying water connected the four cylinders. Cylinders were placed in the dividing chambers 25 cm wide to separate animals visually. Each 5-minute experimental session was videotaped and analyzed in real time by computer software (Clever Systems, Inc.) for four animals at a time. The immobility, swimming, climbing and escape times were recorded by the software. The four activities are defined as follow. Immobility: the animal floats motionlessly or makes only those movements necessary to keep its head above water; Climb: the animal vigorously moves vertically while scratching the wall around the cylinder; Swim: the animal moves horizontally around in the cylinder more than necessary to keep its head above water; and Escape: sum of all vigorous active movements.
The ability of a test compound to decrease the duration or frequency of immobility, or changes in swimming, climbing and escape times, was measured using the FST procedure described above. […] The analysis of the results in the studies described was focused on the immobility time during 5-minute test session.
There were two swim sessions in each experiment. First, a pre-test swim session for 15 minutes was performed. Following 48 hours later was a test session of 5-minute duration. Upon completion of a swim session, each animal was placed under a heat lamp in a cage with soft bedding for approximately 15 minutes to prevent hypothermia.
Animals were pre-treated with a vehicle or test compound after completing the pre-test swim session, then 24 hours later and then shortly prior to the 5-minute test session; i.e., three injections were given to each animal between the two swim sessions that occurred on 3 consecutive days.
Data were analyzed using GraphPad Prism software (GraphPad Software, Inc. San Diego, Calif.). For the comparison of the effect of different doses for various drugs on immobility in the FST one-way ANOVA was used followed by Dunnett's multiple comparison test. […] The ED50 and Emax values were statistically compared using two-tail t-test.

Male Wistar rats = assay: Chronic Mild Stress Model (Chronic), sucrose consumption; format: in vivo
Description: In the chronic mild stress (CMS) model rats subjected to a variety of mild stressors for a prolonged period of time show, among other behavioural, biochemical and physiological impairments, a substantial decrease in their responsiveness to rewarding stimuli. This deficit is usually monitored by a decrease in the consumption of the 1% sucrose solution, but can also be seen in other tests, such as place preference conditioning or intracranial self-stimulation. Since the subsensitivity to reward appears to reflect anhedonia (inability to experience pleasure), which is a core symptom of major depressive disorders, the CMS procedure may serve as a suitable research tool in studies into the mechanisms of antidepressant action.
Male Wistar rats were brought into the laboratory two months before the start of the experiment. Except as described below, the animals were singly housed with food and water freely available, and were maintained on a 12-h light/dark and in a constant temperature (22±2° C.) and humidity (50±5%) conditions.
The animals were first trained to consume a 1% sucrose solution; training consisted of eight 1 h baseline tests in which sucrose was presented, in the home cage, following 14 h food and water deprivation; the sucrose intake was measured by weighing pre-weighed bottles containing the sucrose solution, at the end of the test. Subsequently, sucrose consumption was monitored, under similar conditions, at weekly intervals throughout the whole experiment.
On the basis of their sucrose intakes in the final baseline test, the animals were divided into two matched groups. One group of animals was subjected to the chronic mild stress procedure for a period of 7 consecutive weeks. Each week of stress regime consisted of: two periods of food or water deprivation, two periods of 45 degree cage tilt, two periods of intermittent illumination (lights on and off every 2 h), two periods of soiled cage (250 ml water in sawdust bedding), one period of paired housing, two periods of low intensity stroboscopic illumination (150 flashes/min), and three periods of no stress. All stressors were 10-14 h of duration and were applied individually and continuously, day and night. Control animals were housed in separate rooms and had no contact with the stressed animals. They were deprived of food and water for the 14 h preceding each sucrose test, but otherwise food and water were freely available in the home cage.
The drugs were administered at approx. 10.00 and the weekly sucrose tests were carried out 24 h following the last drug injections. […]
All results obtained in this study were analyzed by multiple analyses of variance with three between-subjects factors (stress/control, drug treatments and successive sucrose tests). […]

NS(=O)(=O)NC[C@H]1COc2cc(Cl)ccc2O1 [Compound #8, (2S)-(−)-N-(6-Chloro-2,3-dihydro-benzo[1,4]dioxin-2-ylmethyl)-sulfamide]
ED50 (Male Sprague Dawley rats; Rattus norvegicus, po, 5 min, three administrations, 5-minute test session, read-out: ED50 (immobility)): 5.6 ± 0.6 mg/kg
effect in the FST (immobility time) (Male Sprague Dawley rats; 5-minute testing session): antidepressant-like activity in the FST
Emax (immobility) (Male Sprague Dawley rats; immobility): 67.0 ± 11.6 s
Treatment effect on sucrose intake vs vehicle, control animals (Male Wistar rats; controls, 12, 30 or 60 mg/kg once daily i.p. for five weeks): did not cause significant Treatment effects
Treatment effect on sucrose intake vs vehicle, stressed animals (Male Wistar rats; stressed, 12, 30 or 60 mg/kg once daily i.p. for five weeks): did not cause significant Treatment effects
